The text below walks through data of patent US20250361217A1, “FATTY ACID COMPOUNDS” (University of Pittsburgh - Of the Commonwealth System of …, priority 2022, published 2025).

This test concerns the target T1, ACLY (Mus musculus, UniProt Q91V92).
T1 construct: Proteins were extracted from the liver powder (50 mg) with 1 mL of phosphate-buffered saline; from tissue; host or cells: liver of male C57BL/6J mice (HFD, treated in vivo with vehicle or 11U3-2M)
T1 sequence (Q91V92 1-1091): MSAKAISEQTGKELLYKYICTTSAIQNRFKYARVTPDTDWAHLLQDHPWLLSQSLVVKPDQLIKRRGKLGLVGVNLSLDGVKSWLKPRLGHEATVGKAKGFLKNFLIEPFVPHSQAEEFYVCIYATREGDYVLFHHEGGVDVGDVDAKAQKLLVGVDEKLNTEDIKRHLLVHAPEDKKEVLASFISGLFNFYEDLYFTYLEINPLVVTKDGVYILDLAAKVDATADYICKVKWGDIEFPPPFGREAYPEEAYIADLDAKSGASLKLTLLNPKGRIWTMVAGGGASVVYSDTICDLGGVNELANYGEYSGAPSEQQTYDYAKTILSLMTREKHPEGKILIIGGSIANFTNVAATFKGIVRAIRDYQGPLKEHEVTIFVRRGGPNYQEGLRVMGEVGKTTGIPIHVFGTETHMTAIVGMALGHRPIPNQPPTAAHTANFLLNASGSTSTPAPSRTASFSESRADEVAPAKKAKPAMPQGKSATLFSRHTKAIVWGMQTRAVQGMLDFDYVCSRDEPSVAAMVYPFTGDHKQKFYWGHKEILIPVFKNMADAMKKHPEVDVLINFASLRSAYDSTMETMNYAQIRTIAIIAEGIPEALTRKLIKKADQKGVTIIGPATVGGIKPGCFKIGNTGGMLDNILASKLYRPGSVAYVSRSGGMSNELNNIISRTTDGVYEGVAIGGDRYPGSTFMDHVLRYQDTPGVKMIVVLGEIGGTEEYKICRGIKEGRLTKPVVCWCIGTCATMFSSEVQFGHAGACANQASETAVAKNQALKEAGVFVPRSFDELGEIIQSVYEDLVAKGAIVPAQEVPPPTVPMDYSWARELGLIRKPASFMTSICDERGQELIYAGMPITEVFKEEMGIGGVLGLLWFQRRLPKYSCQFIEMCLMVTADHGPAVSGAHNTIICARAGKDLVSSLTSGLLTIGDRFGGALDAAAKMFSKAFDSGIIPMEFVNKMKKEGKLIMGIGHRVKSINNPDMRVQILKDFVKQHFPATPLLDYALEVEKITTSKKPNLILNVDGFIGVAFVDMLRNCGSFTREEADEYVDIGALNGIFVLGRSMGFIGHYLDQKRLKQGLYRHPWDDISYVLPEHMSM
In words: Thermal shift assay of liver proteins, ACLY. Type of test: binding, mice. How it is done: The liver samples (50 mg) were homogenized and vortexed in ice-cold RIPA buffer containing phosphatase (Fisher Scientific, #PIA32957) and protease (Fisher Scientific, #PIA32953) inhibitor cocktails. Protein concentration was determined using a […] (Pierce). Protein lysates were mixed with LDS Sample Buffer (1:4) and heated for 2 min at 95° C. The lysates were then loaded and electrophoresed on a 10% Tris-Glycine eXtended (BioRad, Criterion #5671034). The proteins were electrophoretically transferred to a PVDF membrane (BioRad, #1620177), and the transfer was confirmed by staining the membrane with 0.1% Ponceau S solution (Sigma-Aldrich, #6226-79-5). The membrane was then blocked for 90 min at RT with 5% nonfat dry milk (LabScientific) or 5% BSA (MilliporeSigma) in TBS-T (tris buffered saline+0.1% Tween 20 [Thermo Fisher Scientific]). […] Quantitative densitometric analysis was performed using Image Lab software (Bio-Rad).
Thermal Shift Assay Proteins were extracted from the liver powder (50 mg) with 1 mL of phosphate-buffered saline (PBS—Gibco, Paisley, UK) containing phosphatase (Fisher Scientific, #PIA32957) and protease (Fisher Scientific, #PIA32953) inhibitors. […] The Supernatants were transferred to new tubes and analyzed by western blot as described above.

In the case of `CCCc1ccc(CCCCCCCCCC(C)(C)C(=O)O)o1` [11U3-2M, 2,2-Dimethyl-11-(5-propylfuran-2-yl)undecanoic acid], the ACLY thermal stability entry (full cohorts, HFD+11U3-2M, higher temperature (52, 53.5, 55° C.)) is listed as “greatly increased”. In addition, for the setting “one mouse per group, 52, 53.5 and 55° C.”, the “ACLY thermal stability compared to veh” value is “higher stability”.
